Key:
[1] = tested on: aortic allografts; test: Immunohistology of aortic grafts: infiltrating leukocytes and VSMCs; assay type: in vivo, rat; set-up: key: −: not present; +: low; ++: moderate; +++: frequent; conditions: day 30
Method: Immunohistological analysis. Immunohistology was performed on cryostat sections as previously described in detail. Guillot et al., J. Immunol. 164:5258-68 (2000). Immunohistological analysis of infiltrating leukocytes was performed at day 30 after transplantation using the following mouse Mab: a mixture of two anti-leukocyte CD45 Mabs (OX1 AND OX30), anti-monocyte/macrophage CD68 (ED1), anti-αβ TCR (R.7.3), anti-CD4 (W3/25), anti-CD8 α chain (OX8), anti-monomorphic class II MHC antigens (OX6), anti-CD25 (OX39) (all from ECACC, Wiltshire, UK), anti-CD54 (ICAM-1) (Seikagaku America Inc., Rockville, Mass.), anti-CD86 (B7.2) (Pharmingen, Franklin Lakes, N.J.) and an irrelevant mouse Mab (3G8, anti-human CD16). VSMCs were detected using a mouse anti-α human smooth muscle actin Mab (Sigma, St. Louis, Mo.). Slides were then incubated with a biotin-conjugated anti-mouse immunoglobulin antibody (Vector Laboratories, Burlingame, Calif.), followed by HRP-conjugated streptavidin (Vector Laboratories) and VIP substrate. IFNγ expression was analyzed using a hamster Mab (Genzyme, Cambridge, Mass.). The IP10 chemiokine was detected using a goat anti-IP10 antibody (Santa Cruz, Santa Cruz, Calif.). Rabbit antibodies were used to detect iNOS (Transduction Laboratories, Lexington, Ky.), HO-1 (Stressgen) and TGFβ1 (Promega, Madison, Wis.). Biotin-conjugated anti-hamster, anti-goat and anti-rabbit antibodies were from Jackson Immunoresearch. Binding of these antibodies was detected by incubation with HRP-conjugated streptavidin and VIP substrate. Tissue sections were counterstained with hematoxylin and lithium carbonate.

[2] = tested on: rat liver; test: Histologic severity of I/R injury, Banff criteria; set-up: species or system Sprague Dawley (SD) rats; conditions: CO, scale 1-4
Text: Histology. Liver specimens were fixed in a 10% buffered formalin solution and embedded in paraffin. Sections were made at 4 μm and stained with H&E. The histologic severity of I/R injury was graded using International Banff Criteria (Int'l Banff Schema Conference Worksheet, The Third Int'l Banff Conference on Allograft Pathology, June 21-25 (1995)). Using these criteria, lobular disarray and ballooning changes are graded from 1-4, where no change is given a score of 1 and severe disarray or ballooning changes are given a score of 4.

[3] = Systemic COHb and blood chemistry after oral methylene chloride in rats; assay type: in vivo, rat; conditions: MC-treated rats, 500 mg/kg daily
Method: MC (Sigma, St. Louis, Mo.) was diluted in olive oil and administered orally on a daily basis (from day 0 to 30) at 500 mg/kg. This dose saturates the cytochrome P-450 oxidative system, and yields maximal COHb values of 10% COHb in venous or aortic blood. Gargas et al. and Andersen et al., supra; Wirkner et al., Toxicol. App. PharmacoL 143:83-88 (1997). […] Id. […] Kirschman, Fd. Chem. Toxic. 24:943-49 (1986); Dhillon and Von Burg, Toxicology Update 1:329-35 (1995). MC may show liver and central nervous system toxicity at higher doses and/or longer exposures. Id. COHb levels were evaluated in heparinized venous blood using the VOXimeter sensor (A-VOX Systems, San Antonio, Tex.) and expressed as the percentage of total hemoglobin. Bicarbonates, soluble CO2, total CO2 and pH were measured using standard clinical biochemistry techniques (Laboratory of Biochemistry, University Hospital of Nantes).

[4] = cited from earlier work

## [C-]#[O+] [CO, carbon monoxide]
[1]; adventitia
  CD4: ++
  CD8: +
  CD45 (leukocytes): +++
  CD68 (macrophages): +++
  TCRαβ (T cells): +
  VSMCs: −
[1]; intima
  CD4: +
  CD8: +
  CD45 (leukocytes): ++
  CD68 (macrophages): ++
  TCRαβ (T cells): −
  VSMCs: −
[1]; media
  CD4: −
  CD8: −
  CD45 (leukocytes): −
  CD68 (macrophages): −
  TCRαβ (T cells): −
  VSMCs: +++
[2]; 1 h reperfusion
  Banff score of I/R injury: 1.2±0.31
[2]; 2 h reperfusion
  Banff score of I/R injury: 2.0±0.12

## ClCCl [methylene chloride]
[3]
  behavior, food consumption, gross necropsy: normal behavior, food consumption and no particular gross necropsy alterations
[4]; 500 mg/kg MC per os
  HbCO generated: around 10%
  half life of metabolism: about 3 h
[4]; 500 mg/kg for 4 weeks, rats
  toxicity on repeated administration: did not induce major body weight, biochemical or histological changes
[4]; 500 mg/kg orally
  maximal COHb values in venous or aortic blood: 10 % COHb
[4]; rat, in vivo
  portion of the compound converted into carbon monoxide: 50-80%

From patent US20040143025A1, “Carbon monoxide generating compunds for treatment of vascular, inflammatory and immune disorders” (priority 2002, published 2004)
